Laboratory results reported in article PMC6934184, “Selective DNA-PKcs inhibition extends the therapeutic index of localized radiotherapy and chemotherapy” (The Journal of Clinical Investigation, 2019).

Biological target: T1, TEK (TIE2) R849W (Homo sapiens, UniProt Q02763, R849W)
T1 construct: purchased Thermo Fisher Scientific (Life Technologies) SelectScreen
Assay: SelectScreen LanthaScreen
Type: binding
Settings: read-out: % displacement
Outline: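 SelectScreen broad panel; activity (Z'LYTE, Adapta) plus binding formats. ATP: Km app for CSF1R Z'LYTE; 10 for CAMK1 Adapta. Readout = % per kinase.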

T1 sequence (Q02763 23-1124 R849W): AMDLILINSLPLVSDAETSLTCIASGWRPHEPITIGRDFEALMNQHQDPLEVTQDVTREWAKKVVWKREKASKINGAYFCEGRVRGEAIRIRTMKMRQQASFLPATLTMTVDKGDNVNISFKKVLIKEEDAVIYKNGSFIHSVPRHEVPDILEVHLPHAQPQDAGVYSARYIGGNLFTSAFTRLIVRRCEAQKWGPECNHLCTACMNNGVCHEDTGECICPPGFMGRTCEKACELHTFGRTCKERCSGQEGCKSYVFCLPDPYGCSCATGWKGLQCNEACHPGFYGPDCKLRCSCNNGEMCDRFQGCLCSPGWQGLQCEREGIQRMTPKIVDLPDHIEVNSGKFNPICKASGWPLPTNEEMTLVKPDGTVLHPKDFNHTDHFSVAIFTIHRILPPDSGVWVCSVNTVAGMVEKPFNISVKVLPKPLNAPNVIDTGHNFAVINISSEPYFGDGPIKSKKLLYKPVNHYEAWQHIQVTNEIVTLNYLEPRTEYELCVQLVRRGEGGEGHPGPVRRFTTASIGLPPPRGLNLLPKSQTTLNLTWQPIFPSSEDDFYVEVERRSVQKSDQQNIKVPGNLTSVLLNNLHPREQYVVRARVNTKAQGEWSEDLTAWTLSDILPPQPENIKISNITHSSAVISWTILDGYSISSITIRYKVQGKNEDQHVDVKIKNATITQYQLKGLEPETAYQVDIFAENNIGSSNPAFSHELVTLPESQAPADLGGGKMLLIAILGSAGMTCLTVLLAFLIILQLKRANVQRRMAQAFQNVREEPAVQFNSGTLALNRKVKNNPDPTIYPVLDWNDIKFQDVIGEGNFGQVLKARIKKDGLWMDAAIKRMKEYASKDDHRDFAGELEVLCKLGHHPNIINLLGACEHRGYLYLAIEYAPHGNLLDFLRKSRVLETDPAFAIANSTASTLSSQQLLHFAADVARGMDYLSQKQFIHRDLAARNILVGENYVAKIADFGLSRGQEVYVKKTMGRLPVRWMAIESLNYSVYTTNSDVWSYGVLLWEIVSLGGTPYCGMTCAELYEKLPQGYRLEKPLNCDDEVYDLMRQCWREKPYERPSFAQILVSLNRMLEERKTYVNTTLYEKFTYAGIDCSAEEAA

## CN(C(=O)CN1CCOCC1)c1ccc2sc3c(-c4cccc5c(=O)cc(N6CC7CCC(C6)O7)oc45)cccc3c2c1 [NU5455]
  inhibition at 1 µM: -3.3%
